One assay addresses recombinant HIV-RT (Human immunodeficiency virus type 1 group M subtype B, UniProt P04585). As to the kind of experiment: Test I (HIVRT (rAdt)), direct inhibition of recombinant HIV-RT. The assay is classed as biochemical. The protocol: The compounds were tested for direct inhibitory activity on HIV-RT in a volume of […] recombinant HIV-RT (diluted in virus disruption buffer to give 200.000 cpm).
100 mM Tris-HCl pH 7.6, 100 mM KCl, 4 mM MgCl2, 4 mM DTT, 275 mg/ml BSA, 0.5 mg (rA)n(dT)12-18 and 0.3 mM ^3H- dTTP (specific activity […]). After 60 minutess of incubation 40 ml in duplicate were spotted on paper discs and washed in 5% TCA. After rinsing the paper discs in ethanol they were dried and counted in scintillation fluid.

The next assay deals with HIV virus. Put plainly: Test A (XTT), MT4 cells infected with HIV. It counts as cell-based. Conditions: for inhibition at 1 µg/mL / inhibition at 10 µg/mL / inhibition at 100 µg/mL: Human immunodeficiency virus 1, MT4, Test A; for % inhibition: Test A. The protocol: (§1) Tests A, B, C, and D (XTT)
(§2) MT4 cells in a medium of RPMI 1640, 5% FCS, penicillin/streptomycin are adjusted to 2x10^5 cells/ml and seeded into microplates (96 wells/plate) 100 µl cell suspension/well giving 2x10^4 cells/well. The compound to be tested is made into a 10 mg/ml mixture in DMSO and stored at -20°C. The compound in DMSO is diluted with medium containing 10% DMSO in a 10-fold dilution series to give 1 mg/ml, 10 mg/ml, and […] solutions. Further dilutions to 400, 40, 4 and 0.4 mg/ml are made in medium containing microplates. Fifty µl of the 400, 40, and 4 mg/ml are transferred to the cell-containing microplates with a multi-channel pipette (final concentration: 100, 10, and 1 mg/ml). Finally, 50 µl of virus suspension is added to each well (with a repetitive "Eppendorf" multipipett). Each plate has at least six wells with the following: [Test A: HIV virus; Test B: HIV(II) virus; Test C: SIV virus; Test D: No virus]; with no drug (virus control) and six wells without virus (medium control). The plate is put into a plastic bag and incubated for six days in CO2 atmosphere. To each well in the plate is added 50 µl of XTT ((2,3-bis[2-methoxy-4-nitro-5-sulfophenyl]-5-[(phenylamino)carbonyl]-2H-tetrazolium hydroxide), (1 mg/ml 0.01-0.02 mM N-metyl-phenazonium methosulfate). After six hours of incubation in CO2 atmosphere the plates are covered with adhesive plate sealers and gently mixed on a vortex. Optical densities are determined at a wavelength of 450 nm and a reference wavelength of 650 nm. The percent reduction of cytotoxocity caused by the virus infection is calculated as follows: (OD450 compound - OD450 inf cells)/(OD450 uninf cells - OD450 inf cells)x 100 [formula]
For orientation: Tetrazolium assays rely on reduction of a dye to a coloured formazan, in cell work by metabolically active cells.

A further assay has as its system HIV(II) virus. As to the kind of experiment: Test B (XTT), MT4 cells infected with HIV(II). The assay is classed as cell-based. Conditions: Human immunodeficiency virus 1, MT4, Test B. On the procedure:
as §1, §2

A further assay has as its system SIV virus. As to the kind of experiment: Test C (XTT), MT4 cells infected with SIV. The assay is classed as cell-based. The conditions noted are these: Simian immunodeficiency virus, MT4, Test C. The protocol: as §1, §2
Another assay has as its system MT4 cells. Put plainly: Test D (XTT), MT4 cells, no virus. It counts as cell-based. Conditions: Homo sapiens. On the procedure:
as §1, §2

`S=C(NCCc1ccccc1)Nc1nc(-c2ccc(Br)cc2)cs1`: the inhibition – broadly, the drop in the measured response relative to a control, in per cent – at 0.1 µg/mL on recombinant HIV-RT came out at 1%. Besides, the inhibition at 1 µg/mL was 1% at recombinant HIV-RT and 0% in the assay on HIV virus (1 µg/ml). Besides, the inhibition at 10 µg/mL on recombinant HIV-RT (10 µg/ml) was determined as 1%; with HIV virus (10 µg/ml) it was 0%. In the assay on HIV virus, this compound returned an inhibition at 100 µg/mL of 30%.

Consider `CCCCCCCCCCCCCCc1sc(NC(=S)NCCc2ccccc2)nc1-c1ccc(Cl)cc1`, for which the inhibition at 0.1 µg/mL at recombinant HIV-RT stood at 1%. For the same compound, the inhibition at 1 µg/mL at recombinant HIV-RT came to 1%; in the assay with HIV virus (1 µg/ml), 0%. Besides, the inhibition at 10 µg/mL on recombinant HIV-RT (10 µg/ml) amounted to 1%; in the assay on HIV virus (10 µg/ml) it was 0%. In the assay with HIV virus, this compound showed an inhibition at 100 µg/mL of 33%.

In the case of `S=C(NCCc1ccccc1)Nc1ccccc1`, the inhibition at 0.1 µg/mL on recombinant HIV-RT amounted to 1%. For the same compound, the inhibition at 1 µg/mL on recombinant HIV-RT was 16%; in the assay with HIV virus (1 µg/ml) it was 0%. Moreover, the figures for the inhibition at 10 µg/mL on recombinant HIV-RT (10 µg/ml) and in the assay with HIV virus (10 µg/ml) were 16% and 25%, respectively. For the same compound, the inhibition at 100 µg/mL with HIV virus turned out to be 0%.

On to `S=C(NCCc1ccccc1)Nc1ccc(Cl)cc1`, for which the inhibition at 0.1 µg/mL at recombinant HIV-RT was 4%. Besides, the inhibition at 1 µg/mL on recombinant HIV-RT was 29%; with HIV virus (1 µg/ml) it was 17%. For the same compound, the inhibition at 10 µg/mL is 35% on recombinant HIV-RT (10 µg/ml) and 67% in the assay on HIV virus (10 µg/ml). In addition, at 100 µg/mL the inhibition with HIV virus was 0%.

For `S=C(NCCc1ccccc1)Nc1ccccc1Cl`, the inhibition at 0.1 µg/mL on recombinant HIV-RT is 5%. The figures for the inhibition at 1 µg/mL on recombinant HIV-RT and in the assay on HIV virus (1 µg/ml) were 31% and 0%, respectively. Further, the figures for the inhibition at 10 µg/mL on recombinant HIV-RT (10 µg/ml) and with HIV virus (10 µg/ml) were 50% and 52%, respectively. Also, in the assay with HIV virus, the inhibition at 100 µg/mL is 0%.

On to `S=C(NCCc1ccccc1)Nc1ncccn1`, for which, on recombinant HIV-RT, the inhibition at 0.1 µg/mL came to 5%. The figures for the inhibition at 1 µg/mL on recombinant HIV-RT and in the assay on HIV virus (1 µg/ml) were 12% and 0%, respectively. For the same compound, the results for the inhibition at 10 µg/mL at recombinant HIV-RT (10 µg/ml) and in the assay on HIV virus (10 µg/ml) were 6% and 23%, respectively. Testing at 100 µg/mL with HIV virus gave an inhibition of 22%.

`Cc1ccnc(NC(=S)NCCc2ccccc2)n1`: the inhibition at 0.1 µg/mL at recombinant HIV-RT is 9%. In addition, the inhibition at 1 µg/mL on recombinant HIV-RT is 15%; in the assay with HIV(II) virus, 0%; in the assay on HIV virus (1 µg/ml), 42%; in the assay with SIV virus, 0%. Besides, the inhibition at 10 µg/mL is 9% on recombinant HIV-RT (10 µg/ml), 27% with HIV(II) virus, 64% in the assay on HIV virus (10 µg/ml) and 0% with SIV virus. Besides, the inhibition at 100 µg/mL in the assay with HIV(II) virus amounted to 100%; in the assay on HIV virus, 100%; in the assay with SIV virus, 0%.

For `S=C(NCCc1ccccc1)Nc1cnccn1`, the inhibition at 0.1 µg/mL at recombinant HIV-RT stood at 1%. In addition, the values for the inhibition at 1 µg/mL at recombinant HIV-RT, in the assay on HIV virus (1 µg/ml) and with SIV virus were 27%, 4% and 2%, respectively. Besides, the inhibition at 10 µg/mL on recombinant HIV-RT (10 µg/ml) turned out to be 36%; with HIV virus (10 µg/ml), 100%; in the assay on SIV virus, 20%. Besides, the inhibition at 100 µg/mL in the assay on HIV virus and with SIV virus was 100% throughout.

Consider `S=C(NCCc1ccccc1)Nc1nnc[nH]1`, for which the inhibition at 0.1 µg/mL amounted to 15% in the assay on MT4 cells (0.1 µg/ml) and 12% at recombinant HIV-RT. For the same compound, the inhibition at 1 µg/mL with MT4 cells (1 µg/ml) was 33%; on recombinant HIV-RT it was 14%; with HIV virus (1 µg/ml) it was 11%; in the assay with SIV virus, 5%. The inhibition at 10 µg/mL was 33% in the assay on MT4 cells (10 µg/ml), 14% at recombinant HIV-RT (10 µg/ml), 27% in the assay on HIV virus (10 µg/ml) and 8% in the assay on SIV virus. Moreover, the inhibition at 100 µg/mL with MT4 cells (100 µg/ml) came out at 0%; in the assay on HIV virus, 45%; in the assay on SIV virus, 15%.

On to `Cc1nnc(NC(=S)NCCc2ccccc2)s1`, for which the inhibition at 0.1 µg/mL on recombinant HIV-RT stood at 1%. Besides, the inhibition at 1 µg/mL on recombinant HIV-RT worked out at 21%; with HIV virus (1 µg/ml) it was 3%. Besides, the inhibition at 10 µg/mL on recombinant HIV-RT (10 µg/ml) was determined as 18%; in the assay on HIV virus (10 µg/ml), 38%. In the assay with HIV virus, the inhibition at 100 µg/mL turned out to be 20%.

For the compound `CCc1nnc(NC(=S)NCCc2ccccc2)s1`, the inhibition at 0.1 µg/mL at recombinant HIV-RT turned out to be 12%. For the same compound, on recombinant HIV-RT (10 µg/ml), the % inhibition (as a rule, the drop in the measured response relative to a control, in per cent) worked out at 17% and the inhibition at 10 µg/mL was found to be 11%. Also, 1 µg/mL produced 0% inhibition in the assay on HIV virus (1 µg/ml). The compound also displayed an inhibition at 10 µg/mL in the assay on HIV virus (10 µg/ml) of 7%. Testing at 100 µg/mL with HIV virus gave an inhibition of 17%.

As to `S=C(NCCc1ccccc1)Nc1nncs1`, on recombinant HIV-RT, the inhibition at 0.1 µg/mL amounted to 12%. Moreover, the inhibition at 1 µg/mL on recombinant HIV-RT was 14%; in the assay with HIV(II) virus, 100%; in the assay on HIV virus (1 µg/ml) it was 100%; in the assay on SIV virus, 0%. Further, the inhibition at 10 µg/mL on recombinant HIV-RT (10 µg/ml) was determined as 14%; with HIV(II) virus, 57%; in the assay on HIV virus (10 µg/ml) it was 100%; in the assay on SIV virus it was 17%. For the same compound, the inhibition at 100 µg/mL in the assay with HIV(II) virus was 96%; in the assay on HIV virus, 100%; in the assay with SIV virus, 0%.

For `S=C(NCCc1ccccc1)Nc1cc[nH]n1`, the inhibition at 0.1 µg/mL on recombinant HIV-RT is 1%. The inhibition at 1 µg/mL on recombinant HIV-RT stood at 8%; with HIV virus (1 µg/ml) it was 0%. The results for the inhibition at 10 µg/mL at recombinant HIV-RT (10 µg/ml) and in the assay on HIV virus (10 µg/ml) were 38% and 0%, respectively. In addition, in the assay with HIV virus, testing at 100 µg/mL gave an inhibition of 0%.

With `Cc1cccc2sc(NC(=S)NCCc3ccccc3)nc12`, the inhibition at 0.1 µg/mL at recombinant HIV-RT stood at 12%. The figures for the inhibition at 1 µg/mL on recombinant HIV-RT and in the assay on HIV virus (1 µg/ml) were 12% and 8%, respectively. Also, the figures for the inhibition at 10 µg/mL on recombinant HIV-RT (10 µg/ml) and with HIV virus (10 µg/ml) were 24% and 28%, respectively. The compound further registered an inhibition at 100 µg/mL with HIV virus of 50%.

Consider `CCOc1ccc2nc(NC(=S)NCCc3ccccc3)sc2c1`, for which the inhibition at 0.1 µg/mL at recombinant HIV-RT was found to be 1%. The inhibition at 1 µg/mL was determined as 5% on recombinant HIV-RT and 0% in the assay with HIV virus (1 µg/ml). The inhibition at 10 µg/mL at recombinant HIV-RT (10 µg/ml) is 8%; with HIV virus (10 µg/ml), 5%. In the assay with HIV virus, this compound gave an inhibition at 100 µg/mL of 33%.

Take `Fc1cccc(Cl)c1CCNC(=S)Nc1nccs1`: on recombinant HIV-RT, the inhibition at 0.1 µg/mL is 43% and the inhibition at 1 µg/mL is 77%. Moreover, the inhibition at 10 µg/mL at recombinant HIV-RT (10 µg/ml) was found to be 92%. In addition, in the assay on HIV virus (1 µg/ml), testing at 1 µg/mL gave an inhibition of 100% and the “% inhibition” value stood at 98%. For the same compound, the “% inhibition” value in the assay with HIV virus (10 µg/ml) came to 52%.

`CCOc1ccccc1CCNC(=S)Nc1nccs1`: on recombinant HIV-RT, the inhibition at 0.1 µg/mL stood at 12%. In addition, the inhibition at 1 µg/mL at recombinant HIV-RT came out at 30%; with HIV(II) virus, 100%; in the assay with HIV virus (1 µg/ml), 96%; in the assay on SIV virus it was 0%. The inhibition at 10 µg/mL on recombinant HIV-RT (10 µg/ml) stood at 33%; in the assay on HIV(II) virus, 91%; with HIV virus (10 µg/ml), 100%; in the assay on SIV virus, 5%. The inhibition at 100 µg/mL in the assay with HIV(II) virus worked out at 100%; in the assay with HIV virus it was 100%; in the assay on SIV virus it was 0%.

The record behind these values is patent publication EP0540143B1, “Compounds and methods for inhibition of HIV and related viruses” (priority 1991, dated 1993).
